Test results from ChEMBL document CHEMBL1129911, “Synthesis, characterization, interaction with DNA, and antitumor activity of a cis-Dichloroplatinum(II) complex linked to an intercalator via one methylene chain” (Bioorg Med Chem Lett, 1997).

System: Nucleic Acid
Assay: The association constant was obtained from absorption spectral change
Format: nucleic-acid assay

For `NCCNCc1c2ccccc2nc2ccccc12`, the K ass was 36000 M⁻¹.
